Data taken from patent publication US4640922A, “3N-substituted 3,4-dihydropyrimidines as agents for treating disorders of cardiovascular system” (Suntory Limited, priority 1984, dated 1987).
Like-named read-outs stand apart in the source and are kept apart here.

Legend:
[1] = system: coronary artery (isolated heart); assay: Coronary vascular dilative effect, isolated perfused guinea pig heart, Langendorff's method (perfusion pressure); details: 0.1 ml injected into coronary artery; isolated guinea pig heart, 37° C., 6 ml/minute
Procedure: The coronary vascular dilative effect of 3N-substituted 3,4-dihydropryrimidine derivatives was tested.
Heartly guinea pigs (weight 400-500 g) were clubbed dead and their hearts were immediately isolated. The hearts were perfused with Krebs-Henseleit solution bubbled with a mixture of 95% O2 +5% CO2 and maintained at 37° C. at a certain rate of 6 ml/minute according to Langendorff's method [J. Pharmacol. Methods 2, 143 (1979)]. The perfusion pressure was determined by a pressure transducer. Samples were prepared by dissolving 1 mg of a test compound in 1 ml of a mixture of dimethylsulfoxide and physiological saline (1:9) and diluting with physiological saline the solution to the predetermined concentration. 0.1 ml of the diluted solution was administered into the coronary artery via a rubber tube connected to an aorta cannula to obtain ED50 (μg/heart) data as shown in Table 1. The numbers of the compounds in the Table correspond respectively to those of the working examples described above.

vertebral artery = assay: Blood flow and blood vessel resistance of vertebral artery in anesthetized dogs; type: in vivo, dog; details: Canis lupus familiaris, iv, % of value before administration, average ± standard error
Procedure: (§1) The pharmacological effects of the compounds of the present invention with respect to the blood flow and blood vessel resistance of vertebral artery and systemic blood pressure (average pressure) in anesthetized dogs. […] The first and second ribs were cut open to expose the left vertebral artery. A probe was attached to the origin of the artery and the blood flow was measured with an electromagnetic rheometer (Model MF-27, product of Nihon Koden K.K.) At the same time, continuous measurement of the following parameters was made: systemic blood pressure (average pressure) at the right femoral artery, the ECG in the second induction period, the heart beat with a tachometer driven by the R wave, and the blood vessel resistance determined by loading a multiplication/division unit (EO-601 G, product of Nihon Koden K.K.) with the average values of blood pressure and blood flow in the vertebral artery. All of these parameters were recorded simultaneously on a polygraph (RM-600, product of Nihon Koden, K.K.) All of the test compounds were injected through a cannula inserted into the femoral […].

systemic blood pressure = assay: Systemic blood pressure (average pressure) in anesthetized dogs; type: in vivo, dog; details: Canis lupus familiaris, iv, % of value before administration, average ± standard error, read-out: Average blood pressure, percentage compared with control
Procedure: as §1

[2] = read-out: Vertebral artery blood flow, percentage compared with control
[3] = read-out: Vertebral artery vessel resistance, percentage compared with control

Question: `CCOC(=O)C1=C(Cl)N=C(C)N(C(=O)OCC)C1c1cccc([N+](=O)[O-])c1` (centres unmarked) [Compound 13] was tested. Which “Pharmacological data ED50” value [1] did it give?
Answer: 0.48 μg/heart

Question: And the response vs control in vivo at 0.003 mg/kg (vertebral artery; [2])?
Answer: 108%

Question: And the response vs control in vivo at 0.003 mg/kg (vertebral artery; [3])?
Answer: 89%

Question: What about the response vs control in vivo at 0.01 mg/kg (vertebral artery; [2]) of the same compound?
Answer: 126%

Question: What about the response vs control in vivo at 0.01 mg/kg (vertebral artery; [3]) of the same compound?
Answer: 81%

Question: And the response vs control in vivo at 0.03 mg/kg (vertebral artery; [2])?
Answer: 128%

Question: What about the response vs control in vivo at 0.03 mg/kg (vertebral artery; [3]) of the same compound?
Answer: 73%

Question: And the response vs control in vivo at 0.1 mg/kg (vertebral artery; [2])?
Answer: 158%

Question: And the response vs control in vivo at 0.1 mg/kg (vertebral artery; [3])?
Answer: 54%

Question: What about the response vs control in vivo at 0.3 mg/kg (vertebral artery; [2]) of the same compound?
Answer: 179%

Question: What about the response vs control in vivo at 0.3 mg/kg (vertebral artery; [3]) of the same compound?
Answer: 46%

Question: And the response vs control in vivo at 1 mg/kg (vertebral artery; [2])?
Answer: 216%

Question: And the response vs control in vivo at 1 mg/kg (vertebral artery; [3])?
Answer: 41%

Question: What about the response vs control in vivo at 0.003 mg/kg (systemic blood pressure) of the same compound?
Answer: 94%

Question: And the response vs control in vivo at 0.01 mg/kg (systemic blood pressure)?
Answer: 92%

Question: And the response vs control in vivo at 0.03 mg/kg (systemic blood pressure)?
Answer: 88%

Question: And the response vs control in vivo at 0.1 mg/kg (systemic blood pressure)?
Answer: 78%

Question: And the response vs control in vivo at 0.3 mg/kg (systemic blood pressure; 0.3 mg/kg)?
Answer: 78%

Question: What about the response vs control in vivo at 1 mg/kg (systemic blood pressure; 1.0 mg/kg) of the same compound?
Answer: 77%

Question: For `CCOC(=O)C1=C(Cl)N=C(C)N(C(=O)OCC)C1c1ccccc1[N+](=O)[O-]` (centres unmarked) [Compound 4], which “Pharmacological data ED50” value [1] is on record?
Answer: 0.25 μg/heart

Question: And the response vs control in vivo at 0.001 mg/kg (vertebral artery; [2])?
Answer: 107 ± 4%

Question: What about the response vs control in vivo at 0.001 mg/kg (vertebral artery; [3]) of the same compound?
Answer: 91 ± 5%

Question: And the response vs control in vivo at 0.003 mg/kg (vertebral artery; [2])?
Answer: 113 ± 6%

Question: What about the response vs control in vivo at 0.003 mg/kg (vertebral artery; [3]) of the same compound?
Answer: 86 ± 7%

Question: And the response vs control in vivo at 0.01 mg/kg (vertebral artery; [2])?
Answer: 143 ± 12%

Question: And the response vs control in vivo at 0.01 mg/kg (vertebral artery; [3])?
Answer: 66 ± 4%

Question: And the response vs control in vivo at 0.03 mg/kg (vertebral artery; [2])?
Answer: 147 ± 16%

Question: What about the response vs control in vivo at 0.03 mg/kg (vertebral artery; [3]) of the same compound?
Answer: 61 ± 5%

Question: And the response vs control in vivo at 0.1 mg/kg (vertebral artery; [2])?
Answer: 182 ± 16%

Question: What about the response vs control in vivo at 0.1 mg/kg (vertebral artery; [3]) of the same compound?
Answer: 51 ± 3%

Question: What about the response vs control in vivo at 0.001 mg/kg (systemic blood pressure) of the same compound?
Answer: 95 ± 1%

Question: And the response vs control in vivo at 0.003 mg/kg (systemic blood pressure)?
Answer: 93 ± 1%

Question: What about the response vs control in vivo at 0.01 mg/kg (systemic blood pressure) of the same compound?
Answer: 91 ± 2%

Question: What about the response vs control in vivo at 0.03 mg/kg (systemic blood pressure) of the same compound?
Answer: 88 ± 1%

Question: And the response vs control in vivo at 0.1 mg/kg (systemic blood pressure)?
Answer: 84 ± 2%

Question: Which “Pharmacological data ED50” value [1] does the source give for `CCOC(=O)C1=C(C)N=C(C)N(C(=O)OCC)C1c1cccc([N+](=O)[O-])c1` (centres unmarked) [Compound 12] here?
Answer: 1.9 μg/heart

Question: What about the response vs control in vivo at 0.003 mg/kg (vertebral artery; [2]) of the same compound?
Answer: 129 ± 11%

Question: What about the response vs control in vivo at 0.003 mg/kg (vertebral artery; [3]) of the same compound?
Answer: 86 ± 2%

Question: And the response vs control in vivo at 0.01 mg/kg (vertebral artery; [2])?
Answer: 148 ± 3%

Question: And the response vs control in vivo at 0.01 mg/kg (vertebral artery; [3])?
Answer: 73 ± 3%

Question: What about the response vs control in vivo at 0.03 mg/kg (vertebral artery; [2]) of the same compound?
Answer: 163 ± 7%

Question: What about the response vs control in vivo at 0.03 mg/kg (vertebral artery; [3]) of the same compound?
Answer: 62 ± 4%

Question: And the response vs control in vivo at 0.1 mg/kg (vertebral artery; [2])?
Answer: 200 ± 6%

Question: And the response vs control in vivo at 0.1 mg/kg (vertebral artery; [3])?
Answer: 47 ± 5%

Question: And the response vs control in vivo at 0.003 mg/kg (systemic blood pressure)?
Answer: 93 ± 0.3%

Question: What about the response vs control in vivo at 0.01 mg/kg (systemic blood pressure) of the same compound?
Answer: 86 ± 1%

Question: And the response vs control in vivo at 0.03 mg/kg (systemic blood pressure)?
Answer: 84 ± 3%

Question: And the response vs control in vivo at 0.1 mg/kg (systemic blood pressure)?
Answer: 77 ± 2%

Question: For `COC(=O)C1=C(C)N=C(C)N(C(=O)OC)C1c1cccc([N+](=O)[O-])c1` (centres unmarked) [Compound 17], which “Pharmacological data ED50” value [1] is on record?
Answer: 2.5 μg/heart

Question: And the response vs control in vivo at 0.001 mg/kg (vertebral artery; [2])?
Answer: 100%

Question: And the response vs control in vivo at 0.001 mg/kg (vertebral artery; [3])?
Answer: 97%

Question: And the response vs control in vivo at 0.003 mg/kg (vertebral artery; [2])?
Answer: 106%

Question: What about the response vs control in vivo at 0.003 mg/kg (vertebral artery; [3]) of the same compound?
Answer: 95%

Question: What about the response vs control in vivo at 0.01 mg/kg (vertebral artery; [2]) of the same compound?
Answer: 108%

Question: What about the response vs control in vivo at 0.01 mg/kg (vertebral artery; [3]) of the same compound?
Answer: 89%

Question: And the response vs control in vivo at 0.03 mg/kg (vertebral artery; [2])?
Answer: 129%

Question: What about the response vs control in vivo at 0.03 mg/kg (vertebral artery; [3]) of the same compound?
Answer: 77%

Question: What about the response vs control in vivo at 0.1 mg/kg (vertebral artery; [2]) of the same compound?
Answer: 148%

Question: What about the response vs control in vivo at 0.1 mg/kg (vertebral artery; [3]) of the same compound?
Answer: 67%

Question: And the response vs control in vivo at 0.001 mg/kg (systemic blood pressure)?
Answer: 95%

Question: What about the response vs control in vivo at 0.003 mg/kg (systemic blood pressure) of the same compound?
Answer: 90%

Question: And the response vs control in vivo at 0.01 mg/kg (systemic blood pressure)?
Answer: 89%

Question: And the response vs control in vivo at 0.03 mg/kg (systemic blood pressure)?
Answer: 86%

Question: And the response vs control in vivo at 0.1 mg/kg (systemic blood pressure)?
Answer: 74%

Question: How did the “Pharmacological data ED50” value [1] turn out when `COC(=O)C1=C(C)N=C(C)N(C(=O)OC)C1c1ccccc1[N+](=O)[O-]` (centres unmarked) [Compound 10] was run?
Answer: 0.75 μg/heart

Question: And the response vs control in vivo at 0.001 mg/kg (vertebral artery; [2])?
Answer: 102%

Question: And the response vs control in vivo at 0.001 mg/kg (vertebral artery; [3])?
Answer: 99%

Question: What about the response vs control in vivo at 0.003 mg/kg (vertebral artery; [2]) of the same compound?
Answer: 108%

Question: What about the response vs control in vivo at 0.003 mg/kg (vertebral artery; [3]) of the same compound?
Answer: 94%

Question: And the response vs control in vivo at 0.01 mg/kg (vertebral artery; [2])?
Answer: 113%

Question: What about the response vs control in vivo at 0.01 mg/kg (vertebral artery; [3]) of the same compound?
Answer: 86%

Question: And the response vs control in vivo at 0.03 mg/kg (vertebral artery; [2])?
Answer: 140%

Question: And the response vs control in vivo at 0.03 mg/kg (vertebral artery; [3])?
Answer: 67%

Question: What about the response vs control in vivo at 0.1 mg/kg (vertebral artery; [2]) of the same compound?
Answer: 146%

Question: And the response vs control in vivo at 0.1 mg/kg (vertebral artery; [3])?
Answer: 58%

Question: And the response vs control in vivo at 0.001 mg/kg (systemic blood pressure)?
Answer: 92%

Question: And the response vs control in vivo at 0.003 mg/kg (systemic blood pressure)?
Answer: 91%

Question: And the response vs control in vivo at 0.01 mg/kg (systemic blood pressure)?
Answer: 86%

Question: What about the response vs control in vivo at 0.03 mg/kg (systemic blood pressure) of the same compound?
Answer: 78%

Question: What about the response vs control in vivo at 0.1 mg/kg (systemic blood pressure) of the same compound?
Answer: 63%
